Source: US11866433B2, “Diarylthiohydantoin compound as androgen receptor antagonist” (CHIA TAI TIANQING PHARMACEUTICAL GROUP CO., LTD., priority 2017, dated 2024)
pIC50: −log10 of the molar value.

Columns and labels:
androgen receptor (AR) = target: T1, androgen receptor (AR) (Homo sapiens, UniProt P10275); experiment: Antagonism of compounds on nuclear translocation of androgen receptor (PathHunter NHR cell lines); type: cell-based; details: antagonist mode, agonist 6a-Fluorotestosterone 0.06 μM (EC80)
T1 sequence (P10275 1-920): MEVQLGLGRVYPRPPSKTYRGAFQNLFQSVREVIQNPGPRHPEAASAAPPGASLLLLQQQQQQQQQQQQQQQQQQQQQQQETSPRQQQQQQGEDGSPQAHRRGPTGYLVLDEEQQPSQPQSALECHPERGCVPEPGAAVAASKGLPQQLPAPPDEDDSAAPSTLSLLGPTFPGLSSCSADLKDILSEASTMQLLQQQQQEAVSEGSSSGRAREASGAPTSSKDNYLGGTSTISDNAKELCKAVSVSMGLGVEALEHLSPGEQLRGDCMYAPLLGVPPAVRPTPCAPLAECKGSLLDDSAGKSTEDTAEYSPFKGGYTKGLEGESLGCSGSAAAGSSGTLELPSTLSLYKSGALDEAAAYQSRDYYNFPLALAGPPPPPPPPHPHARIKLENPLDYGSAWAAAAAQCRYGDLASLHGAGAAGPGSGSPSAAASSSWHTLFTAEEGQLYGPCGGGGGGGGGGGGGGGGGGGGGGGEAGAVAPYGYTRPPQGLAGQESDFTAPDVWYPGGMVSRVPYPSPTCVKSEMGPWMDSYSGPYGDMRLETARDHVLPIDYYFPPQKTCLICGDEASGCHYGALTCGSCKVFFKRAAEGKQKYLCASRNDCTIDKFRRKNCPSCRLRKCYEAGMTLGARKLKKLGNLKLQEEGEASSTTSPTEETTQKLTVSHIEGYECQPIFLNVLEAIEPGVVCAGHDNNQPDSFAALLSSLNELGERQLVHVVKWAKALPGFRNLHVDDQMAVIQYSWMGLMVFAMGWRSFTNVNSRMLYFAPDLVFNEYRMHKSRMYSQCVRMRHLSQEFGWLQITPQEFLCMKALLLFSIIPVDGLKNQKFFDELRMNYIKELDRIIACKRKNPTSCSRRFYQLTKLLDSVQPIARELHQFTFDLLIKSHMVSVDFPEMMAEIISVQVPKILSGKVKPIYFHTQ

[1] = test system: Human prostate cancer LNCaP-FGC cells; experiment: In vivo pharmacodynamic study on subcutaneous xenograft tumor model of human prostate cancer LNCaP-FGC cells; design: species or system CB-17 SCID mice; details: after 21 days of administration, vs solvent control
Protocol: 2.1 Experimental Animals • Species: Mice • Strain: CB-17 SCID mice • Week age and body weight: 6-8 weeks old, 18-22 g body weight • Gender: male • Supplier: Beijing Vital River Laboratory Animal Technology Co., Ltd • Animal Certificate No.: 11400700184227 3. Experimental Method and Steps 3.1 Cell Culture
Human prostate cancer LNCaP-FGC cells (ATCC, Manassas, Virginia) were cultured in vitro monolayers under the culture conditions of RPM11640 medium supplemented with […] fetal bovine serum at 37° C. with 5% CO2. Routine digestion treatment with trypsin-EDTA was performed twice a week for passage. When the cell saturation was 80%-90%, the cells were collected, counted, and inoculated.
0.2 mL (10×10^6) of LNCaP-FGC cells (10×10^6+Matrigel, 1:1) was inoculated subcutaneously to the right back of each CB-17 SCID mouse. When the average tumor volume reached 100-150 mm^3, administration in groups was started.
The tumor diameters were measured with a vernier caliper twice a week. The calculation formula of the tumor volume is: V=0.5a×b^2, wherein a and b represent the long diameter and the short diameter of the tumor, respectively. The antitumor efficacy of the compounds were evaluated by TGI (%) or a relative tumor proliferation rate T/C (%). TGI(%)=[(1−(average tumor volume of a treatment group at the end of drug administration−average tumor volume of the treatment group at the beginning of drug administration))/(average tumor volume of the vehicle control group at the end of treatment−average tumor volume of the vehicle control group at the beginning of treatment)]×100%. The calculation formula of the relative tumor proliferation rate T/C (%) is as follows: T/C %=TRTV/CRTV×100% (TRTV: RTV of a treatment group; CRTV: RTV of a negative control group). The relative tumor volume (RTV) is calculated based on the tumor measurement results, and the calculation formula is RTV=Vt/V0, wherein V0 is the average tumor volume measured at the time of administration in groups (i.e., do), Vt is the average tumor volume at one measurement, and TRTV and CRTV are the data obtained on the same day.
The statistical analysis includes mean and standard error of mean (SEM) of the tumor volume at each time point for each group. […] The comparison between two groups was analyzed by T-test, and the comparison between three or more groups was analyzed by one-way ANOVA. If there was a significant difference in the F value, the Games-Howell method was used for testing. If there was no significant difference in the F value, the Dunnet (2-sided) method was used for analysis. All data analysis was performed by using SPSS 17.0. “p<0.05” was considered a significant difference.

With `CCc1nc(OCCO)c2cc(N3C(=S)N(c4ccc(C#N)c(C(F)(F)F)c4)C(=O)C3(C)C)cc(F)c2n1` [Compound 10] the pIC50 (androgen receptor (AR)) was 5.77, the TGI ([1]; 50 mg/kg PO QD) was 83.0% and the “relative tumor proliferation rate T/C” value ([1]; 50 mg/kg PO QD) was 23.8%.

For `CCc1cc(=O)n2cc(N3C(=S)N(c4ccc(C#N)c(C(F)(F)F)c4)C(=O)C3(C)C)cc(F)c2n1` [Compound 35], the pIC50 (androgen receptor (AR)) was 5.64, the TGI ([1]; 10 mg/kg PO QD) was 59.36% and the “relative tumor proliferation rate T/C” value ([1]; 10 mg/kg PO QD) was 47.39%. The TGI ([1]; 20 mg/kg PO QD) was 76.00% and the “relative tumor proliferation rate T/C” value ([1]; 20 mg/kg PO QD) was 32.47%.

`CCc1cc(=O)n2cc(N3C(=S)N(c4ccc(C#N)c(Cl)c4)C(=O)C3(C)C)cc(F)c2n1` [Compound 58] was tested, and the pIC50 (androgen receptor (AR)) was 6.02, the TGI ([1]; 10 mg/kg PO QD) was 62.75% and the “relative tumor proliferation rate T/C” value ([1]; 10 mg/kg PO QD) was 43.93%. The TGI ([1]; 20 mg/kg PO QD) was 76.16% and the “relative tumor proliferation rate T/C” value ([1]; 20 mg/kg PO QD) was 32.37%.
